Paper PMC8942775, “Lipidated Calcitonin Gene-Related Peptide (CGRP) Peptide Antagonists Retain CGRP Receptor Activity and Attenuate CGRP Action In Vivo” (Frontiers in Pharmacology, 2022)
One block for each compound: values may come before it. Ends that are not written are not given here. Peptide text beside a SMILES is read from it. * marks the point of attachment. Ethyl(2-palmitoyloxy) = CCCCCCCCCCCCCCCC(=O)OCC*

Assays:
[1] = Solubility limit of the dosing solution; type: physicochemical; details: dosing vehicle 0.9% saline with 0.1% BSA and 3.2% DMSO; limited the maximum dose to 320 nmol/kg (10 ml/kg)
Procedure: Experimental design is outlined in Figure 1. Male and female C57BL/6J mice were recruited at 10–12 weeks of age at 20–30 g bodyweight. Animals were randomly allocated to each treatment group. Antagonists were diluted from respective stock solutions into 37°C pre-warmed sterile 0.9% saline containing 0.1% BSA and DMSO at a final amount of 3.2%. The vehicle was 0.9% saline supplemented with 0.1% BSA and 3.2% DMSO. Antagonist or vehicle was administered subcutaneously at a volume of 10 ml/kg. The anesthetic was: ketamine at 10 mg/ml and xylazine at 1 mg/ml, dissolved in sterile 0.9% saline. This was administered via the intraperitoneal route at 10 ml/kg and the anesthetized mouse placed onto a heating pad to maintain constant body temperature. The head was positioned for the dorsal region of both ears to be aligned to the LDI2-HIR Laser Doppler Imager (Moor Instruments) above it. The imager scanned 40 cm from the ear at a scan speed of 4 ms/pixel, with a scan area of approximately 11.0 cm × 4.1 cm and 256 × 45 pixels resolution. This provided a scan rate of approximately 1 scan/min for both ears. Both ears were simultaneously scanned for 3 min to generate the baseline blood flow prior to capsaicin-challenge (Figure 1). […]

[2] = test system: endogenous CGRP action (capsaicin-induced dermal vasodilation); test: Capsaicin-induced dermal vasodilation (CIDV), laser Doppler imaging of the mouse ear; type: in vivo, C57BL/6J mice; details: for effect on CIDV response (antagonist screening): male and female C57BL/6J mice, single s.c. dose 10 min before anesthesia, αCGRP8-37 960 nmol/kg, olcegepant 1150 nmol/kg, K24C-palmitate 320 nmol/kg, capsaicin 60 μg/ear, flux AUC over 15 min vs saline, four to five mice per group; for effect on CIDV response at lower (mass-matched) dose: s.c., flux AUC over 15 min vs matched vehicle group, compared to V8C-palmitate and K24C-palmitate, 4-7 per group
Procedure: Experimental design is outlined in Figure 1. Male and female C57BL/6J mice were recruited at 10–12 weeks of age at 20–30 g bodyweight. Animals were randomly allocated to each treatment group. Antagonists were diluted from respective stock solutions into 37°C pre-warmed sterile 0.9% saline containing 0.1% BSA and DMSO at a final amount of 3.2%. The vehicle was 0.9% saline supplemented with 0.1% BSA and 3.2% DMSO. Antagonist or vehicle was administered subcutaneously at a volume of 10 ml/kg. The anesthetic was: ketamine at 10 mg/ml and xylazine at 1 mg/ml, dissolved in sterile 0.9% saline. This was administered via the intraperitoneal route at 10 ml/kg and the anesthetized mouse placed onto a heating pad to maintain constant body temperature. The head was positioned for the dorsal region of both ears to be aligned to the LDI2-HIR Laser Doppler Imager (Moor Instruments) above it. The imager scanned 40 cm from the ear at a scan speed of 4 ms/pixel, with a scan area of approximately 11.0 cm × 4.1 cm and 256 × 45 pixels resolution. This provided a scan rate of approximately 1 scan/min for both ears. Both ears were simultaneously scanned for 3 min to generate the baseline blood flow prior to capsaicin-challenge (Figure 1). Guided by earlier research ([Grant et al., 2002]), capsaicin (Sigma-Aldrich, St. Louis, MO, United States) dissolved in absolute ethanol was applied topically to the ear (60 μg/ear; 10 μl on both dorsal and ventral side). On the contralateral ear, ethanol was applied as a negative control. Both ears were then immediately scanned with the Laser Doppler imager for a continuous 15-min period to capture changes in blood flow (Figure 1).
Mice were administered subcutaneously with vehicle or antagonist (Figure 1A). Ten minutes later mice were anesthetized and placed on a heating pad. Ten minutes after anesthesia induction, measurement of dermal blood-flow commenced. Either a single dose of antagonist as specified in the figures was used or a dose-ranging study was conducted. For the dose-ranging study, either hαCGRP8-37 or hαCGRP8-37 V8C-palmitate (V8C-palmitate) at a dose of 320, 960 or 3,200 nmol/kg was used. Doses were selected based on existing literature and our own pilot trials to characterize optimal (and maximal/minimal) effective dose within the bounds of solubility limits ([Saxen et al., 1994]; [Grant et al., 2002]; [Gohin et al., 2015]; [Aubdool et al., 2016]).
Mice were administered subcutaneously with vehicle or either hαCGRP8-37 (960 nmol/kg) or V8C-palmitate (960 nmol/kg) at 10, 20, 30 or 60 min prior to anesthesia and baseline read (Figure 1A). Ten minutes after anesthesia induction, measurement of dermal blood-flow began. To study the time of onset of antagonist activity, a shorter period between treatment administration and capsaicin challenge was utilized (T0) (Figure 1B). Here, mice were anesthetized and placed on the heating pad prior to peptide administration. Immediately after peptide administration, measurement of dermal blood-flow began.
For laser doppler imaging (LDI) scans, mean flux values of the whole scanned ear region for both ethanol (control) and capsaicin-treated ears at each time point (per minute) were analyzed using the MoorLDI Review 6.1 software. Mean flux values were normalized to the mean flux values averaged from the three continuous baseline scans and a time course is generated. Area under the curve (AUC) of the % flux mean after capsaicin application (t ≥ 0) was measured for each animal, grouped and compared between different ears or treatment arms. […] Time courses and time points were compared using repeated measures two-way ANOVA with Bonferonni’s multiple comparisons test.

[3] = target: T1, human CGRP receptor (CLR:RAMP1) (Homo sapiens, UniProt O60894+Q16602); test: cAMP assay, antagonism of αCGRP at the human CGRP receptor in transfected Cos-7 cells; type: cell-based; details: for pA2, CGRPr: non-lipidated analogues, single antagonist concentration 30 nM, agonist αCGRP, mean ± SEM of three independent experiments, SEM; for fold less potent compared to αCGRP8-37 at the CGRP receptor: from pA2 values at 30 nM
T1 construct: HA; myc; expressed in transfected cells; host or cells: Cos-7
T1 sequence (Q16602 23-461): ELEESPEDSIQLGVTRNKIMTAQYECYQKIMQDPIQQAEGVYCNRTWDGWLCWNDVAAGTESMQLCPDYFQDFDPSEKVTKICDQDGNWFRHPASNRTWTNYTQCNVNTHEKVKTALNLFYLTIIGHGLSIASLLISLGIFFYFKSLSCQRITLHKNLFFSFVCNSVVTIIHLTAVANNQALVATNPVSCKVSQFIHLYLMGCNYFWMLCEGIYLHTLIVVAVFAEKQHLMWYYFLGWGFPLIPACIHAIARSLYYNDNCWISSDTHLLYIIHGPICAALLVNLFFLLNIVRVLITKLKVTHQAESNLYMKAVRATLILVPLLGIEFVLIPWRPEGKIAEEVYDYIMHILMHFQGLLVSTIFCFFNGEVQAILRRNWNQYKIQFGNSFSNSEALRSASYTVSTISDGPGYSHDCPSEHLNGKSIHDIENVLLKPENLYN
T1 sequence (O60894 27-148): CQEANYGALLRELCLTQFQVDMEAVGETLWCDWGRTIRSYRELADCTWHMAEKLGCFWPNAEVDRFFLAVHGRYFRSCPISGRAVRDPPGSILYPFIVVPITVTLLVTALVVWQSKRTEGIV
Procedure: (§1) Data were analyzed using GraphPad Prism versions 7–9 (GraphPad Software Inc., San Diego, CA, Unite States). Concentration-response cAMP data were fitted via non-linear regression using a four-parameter logistic equation. An extra sum-of-squares F-test was conducted to determine whether the Hill slope was equal to one. […] The maximal (Emax) and minimal (Emin) responses were not constrained between independent experiments to obtain the pEC50 value.
(§2) The Schild slope was also constrained to one.

[4] = target: T2, human AMY1 receptor (CTR/RAMP1) (Homo sapiens, UniProt O60894+P30988); test: cAMP assay, antagonism of αCGRP at the human AMY1 receptor in transfected Cos-7 cells; type: cell-based; details: for pA2, AMY1r: non-lipidated analogues, single antagonist concentration 30 nM, agonist αCGRP, mean ± SEM of three independent experiments, SEM
T2 construct: HA; myc; expressed in transfected cells; host or cells: Cos-7
T2 sequence (P30988 25-474): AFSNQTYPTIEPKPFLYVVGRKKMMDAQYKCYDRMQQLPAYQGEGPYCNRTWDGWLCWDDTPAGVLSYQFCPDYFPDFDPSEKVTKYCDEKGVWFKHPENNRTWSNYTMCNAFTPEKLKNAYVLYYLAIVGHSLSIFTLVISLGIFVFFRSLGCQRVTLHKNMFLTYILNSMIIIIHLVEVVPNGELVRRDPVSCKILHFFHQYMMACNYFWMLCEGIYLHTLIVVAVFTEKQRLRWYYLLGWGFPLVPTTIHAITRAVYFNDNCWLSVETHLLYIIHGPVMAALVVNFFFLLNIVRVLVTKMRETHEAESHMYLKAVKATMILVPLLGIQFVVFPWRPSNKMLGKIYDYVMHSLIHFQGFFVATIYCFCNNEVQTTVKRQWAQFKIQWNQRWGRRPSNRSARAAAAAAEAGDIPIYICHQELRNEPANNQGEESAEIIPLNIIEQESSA
T2 sequence (O60894 27-148): as the sequence (O60894 27-148) above
Procedure: as §1, §2

Compound: CCCCCCCCCCCCCCCC(=O)OCCSC[C@H](NC(=O)[C@@H](NC(=O)[C@@H](NC(=O)CNC(=O)CNC(=O)[C@H](CO)NC(=O)[C@H](CCCNC(=N)N)NC(=O)[C@H](CO)NC(=O)[C@H](CC(C)C)NC(=O)[C@H](CC(C)C)NC(=O)CNC(=O)[C@H](C)NC(=O)[C@H](CC(C)C)NC(=O)[C@H](CCCNC(=N)N)NC(=O)[C@H](Cc1c[nH]cn1)NC(=O)[C@@H](NC(=O)[C@@H](N)C(C)C)[C@@H](C)O)C(C)C)C(C)C)C(=O)N[C@@H](CC(N)=O)C(=O)N[C@@H](CC(N)=O)C(=O)N[C@@H](Cc1ccccc1)C(=O)N[C@H](C(=O)N1CCC[C@H]1C(=O)N[C@H](C(=O)N[C@@H](CC(N)=O)C(=O)N[C@H](C(=O)NCC(=O)N[C@@H](CO)C(=O)N[C@@H](CCCCN)C(=O)N[C@@H](C)C(=O)N[C@@H](Cc1ccccc1)C(N)=O)C(C)C)[C@@H](C)O)C(C)C [K24C-palmitate] (H-VTHRLAGLLSRSGGVVC(Ethyl(2-palmitoyloxy))NNFVPTNVGSKAF-NH2; N-terminus assumed)
solubility [1]: limited solubility at high concentrations | effect on CIDV response (antagonist screening) [2]: attenuated the CIDV response

Compound: CCCCCCCCCCCCCCCC(=O)OCCSC[C@H](N)C(=O)N[C@H](C(=O)N[C@@H](Cc1c[nH]cn1)C(=O)N[C@@H](CCCNC(=N)N)C(=O)N[C@@H](CC(C)C)C(=O)N[C@@H](C)C(=O)NCC(=O)N[C@@H](CC(C)C)C(=O)N[C@@H](CC(C)C)C(=O)N[C@@H](CO)C(=O)N[C@@H](CCCNC(=N)N)C(=O)N[C@@H](CO)C(=O)NCC(=O)NCC(=O)N[C@H](C(=O)N[C@H](C(=O)N[C@@H](CCCCN)C(=O)N[C@@H](CC(N)=O)C(=O)N[C@@H](CC(N)=O)C(=O)N[C@@H](Cc1ccccc1)C(=O)N[C@H](C(=O)N1CCC[C@H]1C(=O)N[C@H](C(=O)N[C@@H](CC(N)=O)C(=O)N[C@H](C(=O)NCC(=O)N[C@@H](CO)C(=O)N[C@@H](CCCCN)C(=O)N[C@@H](C)C(=O)N[C@@H](Cc1ccccc1)C(N)=O)C(C)C)[C@@H](C)O)C(C)C)C(C)C)C(C)C)[C@@H](C)O [V8C-palmitate]
effect on CIDV response (antagonist screening) [2]: attenuated the CIDV response | effect on CIDV, dose ranging, 320 nmol/kg ([2]; male mice, 320 nmol/kg s.c. 10 min before anesthesia, six mice per group): did not have a significant antagonist effect | effect on CIDV, dose ranging, 960 nmol/kg ([2]; male mice, 960 nmol/kg s.c. 10 min before anesthesia, six mice per group): significantly reduced CIDV | effect on CIDV, dose-duration study, T-10 ([2]; male mice, 960 nmol/kg s.c. 10 min prior to anesthesia and capsaicin application, six mice per group): attenuation evident only at T-10 | effect on CIDV, dose-duration study, T-60 ([2]; male mice, 960 nmol/kg s.c. 60 min prior to anesthesia and capsaicin application, six mice per group): disappearing by the T-60 timepoint | effect on CIDV, dose ranging, 3,200 nmol/kg ([2]; male mice, 3,200 nmol/kg s.c. 10 min before anesthesia, six mice per group): significant antagonist effect

Compound: NCCCC[C@H](NC(=O)[C@@H](Cc1cc(Br)c(O)c(Br)c1)NC(=O)N1CCC(N2Cc3ccccc3NC2=O)CC1)C(=O)N1CCN(c2ccncc2)CC1 [olcegepant, reference compound]
effect on CIDV response (antagonist screening) [2]: attenuated the CIDV response

Compound: CCCCCCCCCCCCCCCC(=O)OCCSC[C@H](N)C(=O)N[C@H](C(=O)N[C@H](C(=O)N[C@@H](Cc1c[nH]cn1)C(=O)N[C@@H](CCCNC(=N)N)C(=O)N[C@@H](CC(C)C)C(=O)N[C@@H](C)C(=O)NCC(=O)N[C@@H](CC(C)C)C(=O)N[C@@H](CC(C)C)C(=O)N[C@@H](CO)C(=O)N[C@@H](CCCNC(=N)N)C(=O)N[C@@H](CO)C(=O)NCC(=O)NCC(=O)N[C@H](C(=O)N[C@H](C(=O)N[C@@H](CCCCN)C(=O)N[C@@H](CC(N)=O)C(=O)N[C@@H](CC(N)=O)C(=O)N[C@@H](Cc1ccccc1)C(=O)N[C@H](C(=O)N1CCC[C@H]1C(=O)N[C@H](C(=O)N[C@@H](CC(N)=O)C(=O)N[C@H](C(=O)NCC(=O)N[C@@H](CO)C(=O)N[C@@H](CCCCN)C(=O)N[C@@H](C)C(=O)N[C@@H](Cc1ccccc1)C(N)=O)C(C)C)[C@@H](C)O)C(C)C)C(C)C)C(C)C)[C@@H](C)O)C(C)C [αCGRP7-37-palmitate]
effect on CIDV response at lower (mass-matched) dose ([2]; male mice): weaker antagonist activities

Compound: βCGRP8-37: human βCGRP fragment 8-37, synthesized in house
effect on CIDV response at lower (mass-matched) dose ([2]; male mice): weaker antagonist activities

Continued, values first:

fold reduction of antagonist activity compared to hαCGRP8-37 at CGRP receptor ([3]; from pKB values): ~70 fold | fold reduction of antagonist activity compared to hαCGRP8-37 at AMY1 receptor ([4]; from pKB values): ~12 fold
Compound: CCCCCCCCCCCCCCCC(=O)OCCSC[C@H](NC(=O)[C@H](CO)NC(=O)CNC(=O)[C@@H](NC(=O)[C@H](CC(N)=O)NC(=O)[C@@H](NC(=O)[C@@H]1CCCN1C(=O)[C@@H](NC(=O)[C@H](Cc1ccccc1)NC(=O)[C@H](CC(N)=O)NC(=O)[C@H](CC(N)=O)NC(=O)[C@H](CCCCN)NC(=O)[C@@H](NC(=O)[C@@H](NC(=O)CNC(=O)CNC(=O)[C@H](CO)NC(=O)[C@H](CCCNC(=N)N)NC(=O)[C@H](CO)NC(=O)[C@H](CC(C)C)NC(=O)[C@H](CC(C)C)NC(=O)CNC(=O)[C@H](C)NC(=O)[C@H](CC(C)C)NC(=O)[C@H](CCCNC(=N)N)NC(=O)[C@H](Cc1c[nH]cn1)NC(=O)[C@@H](NC(=O)[C@@H](N)C(C)C)[C@@H](C)O)C(C)C)C(C)C)C(C)C)[C@@H](C)O)C(C)C)C(=O)N[C@@H](C)C(=O)N[C@@H](Cc1ccccc1)C(N)=O [K35C-palmitate]

pA2, CGRPr [3]: 8.25 ± 0.11 | pA2, AMY1r [4]: 7.06 ± 0.15
Compound: K24C αCGRP8-37: cysteine-substituted αCGRP8-37 analogue at Lys-24 (VTHRLAGLLSRSGGVVCNNFVPTNVGSKAF-NH2; ends and bridges not checked; UniProt P06881 90-119, looked up, variant K24C)

pA2, CGRPr [3]: 8.85 ± 0.31 | pA2, AMY1r [4]: 7.04 ± 0.18
Compound: K35C αCGRP8-37: cysteine-substituted αCGRP8-37 analogue at Lys-35

fold less potent compared to αCGRP8-37 at the CGRP receptor [3]: 25 fold | pA2, CGRPr [3]: 7.23 ± 0.07 | pA2, AMY1r [4]: 6.41 ± 0.15
Compound: V8C αCGRP8-37: cysteine-substituted αCGRP8-37 analogue at Val-8 (CTHRLAGLLSRSGGVVKNNFVPTNVGSKAF-NH2; ends and bridges not checked; UniProt P06881 90-119, looked up, variant V8C)

fold less potent compared to αCGRP8-37 at the CGRP receptor [3]: 4.5 fold | pA2, CGRPr [3]: 7.98 ± 0.09 | pA2, AMY1r [4]: 7.10 ± 0.17
Compound: αCGRP7-37: truncated peptide antagonist which retains the native Cys-7 residue (CVTHRLAGLLSRSGGVVKNNFVPTNVGSKAF; ends and bridges not checked; UniProt P06881 89-119, looked up, fragment)
